The source of these data is ChEMBL document CHEMBL1156817, “Fructose-1,6-bisphosphatase Inhibitors. 2. Design, synthesis, and structure-activity relationship of a series of phosphonic acid containing benzimidazoles that function as 5'-adenosinemonophosphate (AMP) mimics” (J Med Chem, 2010).

Series [1] is described as follows: Oral bioavailability in 18 hrs fasted normal Sprague-Dawley rat up to 100 mg/kg by urinary excretion assay. The format is ADME, organism-based. The conditions noted are these: urine.
Series [2] relates to Hepatocyte. The series is described as follows: Inhibition of glucose production in rat primary hepatocytes at 10 uM. The format is functional, cell-based.
Series [3] in a line: Inhibition of adenylate kinase AMP binding site.
Series [4] has as its target T1, ATP-dependent 6-phosphofructokinase, muscle type (Homo sapiens, UniProt P08237).
T1 sequence (P08237 whole entry): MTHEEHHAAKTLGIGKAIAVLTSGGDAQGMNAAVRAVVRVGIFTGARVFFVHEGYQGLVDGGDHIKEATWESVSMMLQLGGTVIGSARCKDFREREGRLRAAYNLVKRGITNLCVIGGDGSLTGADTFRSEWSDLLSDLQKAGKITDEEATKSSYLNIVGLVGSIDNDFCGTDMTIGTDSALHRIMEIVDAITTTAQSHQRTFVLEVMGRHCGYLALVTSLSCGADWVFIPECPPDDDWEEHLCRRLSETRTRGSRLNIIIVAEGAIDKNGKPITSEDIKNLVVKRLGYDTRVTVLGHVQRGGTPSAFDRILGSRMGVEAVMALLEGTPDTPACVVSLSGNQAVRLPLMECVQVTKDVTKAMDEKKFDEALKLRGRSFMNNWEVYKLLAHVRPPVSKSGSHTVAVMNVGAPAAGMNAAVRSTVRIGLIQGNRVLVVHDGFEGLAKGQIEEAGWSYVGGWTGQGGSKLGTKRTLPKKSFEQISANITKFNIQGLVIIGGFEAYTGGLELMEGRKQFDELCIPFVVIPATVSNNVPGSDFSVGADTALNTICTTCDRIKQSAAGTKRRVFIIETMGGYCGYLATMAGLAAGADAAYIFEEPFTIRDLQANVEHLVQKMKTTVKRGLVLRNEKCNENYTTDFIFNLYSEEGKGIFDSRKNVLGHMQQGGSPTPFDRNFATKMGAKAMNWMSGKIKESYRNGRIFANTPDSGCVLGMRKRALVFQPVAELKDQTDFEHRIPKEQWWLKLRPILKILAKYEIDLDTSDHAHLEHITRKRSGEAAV
The series is described as follows: Activation of phosphofructokinase AMP binding site.

Series [5] is described as follows: Activation of glycogen phosphorylase AMP binding site.
The test system of series [6] is Hepatocyte. The series is described as follows: Inhibition of glucose production in rat primary hepatocytes at 100 uM. Format: functional, cell-based.
The subject of series [7] is Rattus norvegicus. In words: Reduction of blood glucose level in 18 hrs fasted normal Sprague-Dawley rat at 10 mg/kg, iv after 1 hr interval. Format: functional. Details: scale not given: the % may be the effect or the level left.
The test system of series [8] is Rattus norvegicus. In words: Reduction of blood glucose level in 5 hrs fasted ZDF rat at 10 mg/kg, iv administered every 1 hr for 6 hrs. The format is functional, organism-based. Details: dose 10 mg/kg.
The target in a further series is Adenosine kinase (Homo sapiens, UniProt P55263). In words: Inhibition of adenosine kinase AMP binding site.
Adenosine kinase, sequence (P55263 whole entry): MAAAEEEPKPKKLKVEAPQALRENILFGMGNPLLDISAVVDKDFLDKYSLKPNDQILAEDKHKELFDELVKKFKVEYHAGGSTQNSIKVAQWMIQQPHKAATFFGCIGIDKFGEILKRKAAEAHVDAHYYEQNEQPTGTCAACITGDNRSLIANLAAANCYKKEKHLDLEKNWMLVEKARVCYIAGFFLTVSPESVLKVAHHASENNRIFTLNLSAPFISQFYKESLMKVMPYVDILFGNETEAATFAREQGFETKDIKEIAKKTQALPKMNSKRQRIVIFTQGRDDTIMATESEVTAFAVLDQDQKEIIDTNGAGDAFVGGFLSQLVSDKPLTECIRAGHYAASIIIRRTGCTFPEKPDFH

Active and inactive are the calls of the source. No cut-off for these calls is given here.

In general, bioavailability refers to the share of a dose that reaches the circulation, judged against a reference dose that is usually intravenous. The compound `CCc1cc(F)c(N)c2nc(-c3ccc(P(=O)(Oc4ccc(C(=O)OC(C)(C)C)cc4)Oc4ccc(C(=O)OC(C)(C)C)cc4)o3)n(CC(C)C)c12` had a bioavailability in [1] of 2%.
In series [1], `CCOC(=O)OCOP(=O)(OCOC(=O)OCC)c1ccc(-c2nc3c(N)c(F)cc(CC)c3n2CC(C)C)o1` returned a bioavailability of 2%.
In the case of `CCc1cc(F)c(N)c2nc(-c3ccc(P(=O)(OCC(=O)OC(C)(C)C)OCC(=O)OC(C)(C)C)o3)n(CC(C)C)c12.Cl`, the bioavailability in series [1] came to 2%.
Compound `CCOC(=O)[C@H](C)NP(=O)(N[C@@H](C)C(=O)OCC)c1ccc(-c2nc3c(N)c(F)cc(CC)c3n2CC(C)C)o1` had a bioavailability in [1] of 5%.
For `CCc1cc(F)c(N)c2nc(-c3ccc(P(=O)(OCCSC(C)=O)OCCSC(C)=O)o3)n(CC(C)C)c12`, the bioavailability in series [1] was determined as 2%.
For orientation: IC50 means the concentration needed to halve the response being measured. The EC50 is the concentration needed to bring the measured effect to its halfway point. With `CCc1cc(F)c(N)c2nc(-c3ccc(P(=O)(O)O)o3)n(CC(C)C)c12`, the result in the series with Hepatocyte [2], with Hepatocyte [6] and in the series with Rattus norvegicus [8] was Active. Further, the IC50 (in series [3]; on Adenosine kinase) was over 100 µM in each case. The EC50 in [4] and in series [5] was over 100 µM throughout. Moreover, the Activity in the series on Rattus norvegicus [7] is listed as 64%. The compound also displayed a bioavailability in series [1] of 1%.
